Assay [1] concerns mice in the cuprizone model. Nature of the assay: Cuprizone model: luxol fast blue staining, lipoprotein (myelin) density in the corpus callosum. As to conditions: 20 mg/kg subcutaneously once a day for 2 weeks after 9 weeks of cuprizone (group #5), compared to vehicle group #3. It is filed as in vivo. The text has this: Measurement of lipoprotein density in myelin sheaths, taken on sections of brains of the mice in the cuprizone model. The mice in the cuprizone model subject were divided into 6 groups: • #1. control group: regular cuprizone-free chow for 9 weeks. The mice were euthanised after 9 weeks and tissue samples were taken for analysis. In these mice no removal of myelin sheaths occurred. • #2. control group with cuprizone: chow containing cuprizone for 9 weeks. The mice were euthanised after 9 weeks and tissue samples were taken for analysis. In the mice fed with chow containing cuprizone myelin sheaths were removed. • #3. vehicle control group - the mice were fed with chow containing cuprizone for 9 weeks, and then with regular chow without cuprizone for 2 weeks. Over the 2 weeks on regular show the mice in the vehicle control group were first injected with vehicle #1: DMSO, intraperitoneally, 150 µl once a day, and then with vehicle #2: canola oil, subcutaneously, 150 µl once a day. • #4. barbadin control group - the mice were fed with chow containing cuprizone for 9 weeks and then with regular chow without cuprizone for 2 weeks. Over the 2 weeks on regular chow the mice in this group were injected with barbadin 0.3 mg/kg, intraperitoneally, 150 µl once a day and then with vehicle #2: canola oil, subcutaneously, 150 µl once a day. • #5. oxysterol experimental group - the mice were fed with chow containing cuprizone for 9 weeks and then with regular chow without cuprizone for 2 weeks. […] Brain sections sampled from the mice were histochemically stained with luxol fast blue (Abcam, cat. No. Ab 150675), and the intensity (density) of the lipid staining in the corpus callosum was measured using the ImageJ software (ImageJ (nih.gov)). […]

The subject of assay [2] is lymphocytes. The experiment in a line: Short-term pharmacology model: blood count after a single injection. Format: in vivo, mice. As to conditions: single subcutaneous injection. The protocol:
Mouse groups in the short-term pharmacology model (Fig 10): Control: one vehicle injection (canola oil). The number of lymphocytes in the group is marked on the graph with the transverse line. The vehicle injection was administered to the mice subcutaneously (100 µl), following which the mice were euthanized after 6 hours (8 mice), 12 hours (8 mice), 24 hours (8 mice), or 48 hours (8 mice).
The 0.8 mg/kg dose group: single injection with CF3-7α,25OHC at the dose of 0.8 mg/kg. The oxysterol injection was administered to the mice subcutaneously (100 µl), following which the mice were euthanized after 6 hours (8 mice), 12 hours (8 mice), 24 hours (8 mice), or 48 hours (8 mice).
The 4 mg/kg dose group: single injection with CF3-7α,25OHC at the dose of 4 mg/kg. The oxysterol injection was administered to the mice subcutaneously (100 µl), following which the mice were euthanized after 6 hours (8 mice), 12 hours (8 mice), 24 hours (8 mice), or 48 hours (8 mice).
The 20 mg/kg dose group: a single injection with CF3-7α,25OHC at the dose of 20 mg/kg. The oxysterol injection was administered to the mice subcutaneously (100 µl), following which the mice were euthanized after 6 hours (8 mice), 12 hours (8 mice), 24 hours (8 mice), or 48 hours (8 mice).
The 100 mg/kg dose group: a single injection with CF3-7α,25OHC at the dose of […]. […]

On to `C[C@H](CCCC(C)(C)O)[C@H]1CC[C@H]2[C@H]3[C@H](CC[C@]12C)[C@@]1(C)CC[C@H](O)CC1=C[C@]3(O)C(F)(F)F` [CF3-7α,25OHC, cholestene-7β-trifluoromethyl,3β,7α,25-triol], for which, in assay [1], the “lipoprotein density in the corpus callosum, higher by” value turned out to be 16% and the “myelin density / myelin regeneration in the corpus callosum” value is given as “increased”. The “myelin density / myelin regeneration in the corpus callosum” value in assay [1] (listed as CF3-7α25OHC) is “more efficient (or faster) myelin regeneration”. Further, the “duration of the lymphocyte-reducing effect following administration” value in assay [2] was found to be 24 h. Besides, the “lowest dose that reduces the level of lymphocytes” value in assay [2] (doses 0.8, 4, 20, 100 mg/kg, blood count after 6, 12, 24 or 48 hours) was 4 mg/kg.

Source of the values: EP4497440A1, “USE OF 7-TRIFLUOROMETHYL-7ALPHA,25-DIHYDROXYCHOLESTEROL IN THE TREATMENT AND MODULATION OF AUTOIMMUNE AND INFLAMMATORY DISEASES OF THE NERVOUS SYSTEM AND NEURODEGENERATIVE DISEASES” (Gdanski Uniwersytet Medyczny, priority 2023, dated 2025).
